Results: ChEMBL document CHEMBL5532664, “Discovery, Optimization, and Evaluation of Potent and Selective DNA-PK Inhibitors in Combination with Chemotherapy or Radiotherapy for the Treatment of Malignancies” (J Med Chem, 2024)
Activity calls are given as the source filed them. The calls are words filed in the database; no cut-off is given here.

Tests used:
[1] = tested on: HCT-116; experiment: Inhibition of colony formation in human HCT-116 cells at […] preincubated with compound for 1 hr followed by exposure to 2 Gy gamma irradiation and measured after 7 days by crystal violet staining based chemiluminescence assay relative to control; format: functional; details: HCT-116, light or radiation study, dose 0.25 µM, time 169 hrs
[2] = in vivo; details: Sprague-Dawley, rat, iv, 5 mg/kg
[3] = in vivo; details: Sprague-Dawley, rat, po, 5 mg/kg
[4] = in vivo; details: Sprague-Dawley, rat, po, 5 mg/kg; remark: listed apart in the source
[5] = in vivo; details: Sprague-Dawley, rat, po, 5 mg/kg; remark: listed apart in the source
[6] = in vivo; details: Sprague-Dawley, rat, po, 5 mg/kg; remark: listed apart in the source
[7] = target: DNA-dependent protein kinase catalytic subunit (Homo sapiens, UniProt P78527)
Sequence of DNA-dependent protein kinase catalytic subunit (P78527 whole entry): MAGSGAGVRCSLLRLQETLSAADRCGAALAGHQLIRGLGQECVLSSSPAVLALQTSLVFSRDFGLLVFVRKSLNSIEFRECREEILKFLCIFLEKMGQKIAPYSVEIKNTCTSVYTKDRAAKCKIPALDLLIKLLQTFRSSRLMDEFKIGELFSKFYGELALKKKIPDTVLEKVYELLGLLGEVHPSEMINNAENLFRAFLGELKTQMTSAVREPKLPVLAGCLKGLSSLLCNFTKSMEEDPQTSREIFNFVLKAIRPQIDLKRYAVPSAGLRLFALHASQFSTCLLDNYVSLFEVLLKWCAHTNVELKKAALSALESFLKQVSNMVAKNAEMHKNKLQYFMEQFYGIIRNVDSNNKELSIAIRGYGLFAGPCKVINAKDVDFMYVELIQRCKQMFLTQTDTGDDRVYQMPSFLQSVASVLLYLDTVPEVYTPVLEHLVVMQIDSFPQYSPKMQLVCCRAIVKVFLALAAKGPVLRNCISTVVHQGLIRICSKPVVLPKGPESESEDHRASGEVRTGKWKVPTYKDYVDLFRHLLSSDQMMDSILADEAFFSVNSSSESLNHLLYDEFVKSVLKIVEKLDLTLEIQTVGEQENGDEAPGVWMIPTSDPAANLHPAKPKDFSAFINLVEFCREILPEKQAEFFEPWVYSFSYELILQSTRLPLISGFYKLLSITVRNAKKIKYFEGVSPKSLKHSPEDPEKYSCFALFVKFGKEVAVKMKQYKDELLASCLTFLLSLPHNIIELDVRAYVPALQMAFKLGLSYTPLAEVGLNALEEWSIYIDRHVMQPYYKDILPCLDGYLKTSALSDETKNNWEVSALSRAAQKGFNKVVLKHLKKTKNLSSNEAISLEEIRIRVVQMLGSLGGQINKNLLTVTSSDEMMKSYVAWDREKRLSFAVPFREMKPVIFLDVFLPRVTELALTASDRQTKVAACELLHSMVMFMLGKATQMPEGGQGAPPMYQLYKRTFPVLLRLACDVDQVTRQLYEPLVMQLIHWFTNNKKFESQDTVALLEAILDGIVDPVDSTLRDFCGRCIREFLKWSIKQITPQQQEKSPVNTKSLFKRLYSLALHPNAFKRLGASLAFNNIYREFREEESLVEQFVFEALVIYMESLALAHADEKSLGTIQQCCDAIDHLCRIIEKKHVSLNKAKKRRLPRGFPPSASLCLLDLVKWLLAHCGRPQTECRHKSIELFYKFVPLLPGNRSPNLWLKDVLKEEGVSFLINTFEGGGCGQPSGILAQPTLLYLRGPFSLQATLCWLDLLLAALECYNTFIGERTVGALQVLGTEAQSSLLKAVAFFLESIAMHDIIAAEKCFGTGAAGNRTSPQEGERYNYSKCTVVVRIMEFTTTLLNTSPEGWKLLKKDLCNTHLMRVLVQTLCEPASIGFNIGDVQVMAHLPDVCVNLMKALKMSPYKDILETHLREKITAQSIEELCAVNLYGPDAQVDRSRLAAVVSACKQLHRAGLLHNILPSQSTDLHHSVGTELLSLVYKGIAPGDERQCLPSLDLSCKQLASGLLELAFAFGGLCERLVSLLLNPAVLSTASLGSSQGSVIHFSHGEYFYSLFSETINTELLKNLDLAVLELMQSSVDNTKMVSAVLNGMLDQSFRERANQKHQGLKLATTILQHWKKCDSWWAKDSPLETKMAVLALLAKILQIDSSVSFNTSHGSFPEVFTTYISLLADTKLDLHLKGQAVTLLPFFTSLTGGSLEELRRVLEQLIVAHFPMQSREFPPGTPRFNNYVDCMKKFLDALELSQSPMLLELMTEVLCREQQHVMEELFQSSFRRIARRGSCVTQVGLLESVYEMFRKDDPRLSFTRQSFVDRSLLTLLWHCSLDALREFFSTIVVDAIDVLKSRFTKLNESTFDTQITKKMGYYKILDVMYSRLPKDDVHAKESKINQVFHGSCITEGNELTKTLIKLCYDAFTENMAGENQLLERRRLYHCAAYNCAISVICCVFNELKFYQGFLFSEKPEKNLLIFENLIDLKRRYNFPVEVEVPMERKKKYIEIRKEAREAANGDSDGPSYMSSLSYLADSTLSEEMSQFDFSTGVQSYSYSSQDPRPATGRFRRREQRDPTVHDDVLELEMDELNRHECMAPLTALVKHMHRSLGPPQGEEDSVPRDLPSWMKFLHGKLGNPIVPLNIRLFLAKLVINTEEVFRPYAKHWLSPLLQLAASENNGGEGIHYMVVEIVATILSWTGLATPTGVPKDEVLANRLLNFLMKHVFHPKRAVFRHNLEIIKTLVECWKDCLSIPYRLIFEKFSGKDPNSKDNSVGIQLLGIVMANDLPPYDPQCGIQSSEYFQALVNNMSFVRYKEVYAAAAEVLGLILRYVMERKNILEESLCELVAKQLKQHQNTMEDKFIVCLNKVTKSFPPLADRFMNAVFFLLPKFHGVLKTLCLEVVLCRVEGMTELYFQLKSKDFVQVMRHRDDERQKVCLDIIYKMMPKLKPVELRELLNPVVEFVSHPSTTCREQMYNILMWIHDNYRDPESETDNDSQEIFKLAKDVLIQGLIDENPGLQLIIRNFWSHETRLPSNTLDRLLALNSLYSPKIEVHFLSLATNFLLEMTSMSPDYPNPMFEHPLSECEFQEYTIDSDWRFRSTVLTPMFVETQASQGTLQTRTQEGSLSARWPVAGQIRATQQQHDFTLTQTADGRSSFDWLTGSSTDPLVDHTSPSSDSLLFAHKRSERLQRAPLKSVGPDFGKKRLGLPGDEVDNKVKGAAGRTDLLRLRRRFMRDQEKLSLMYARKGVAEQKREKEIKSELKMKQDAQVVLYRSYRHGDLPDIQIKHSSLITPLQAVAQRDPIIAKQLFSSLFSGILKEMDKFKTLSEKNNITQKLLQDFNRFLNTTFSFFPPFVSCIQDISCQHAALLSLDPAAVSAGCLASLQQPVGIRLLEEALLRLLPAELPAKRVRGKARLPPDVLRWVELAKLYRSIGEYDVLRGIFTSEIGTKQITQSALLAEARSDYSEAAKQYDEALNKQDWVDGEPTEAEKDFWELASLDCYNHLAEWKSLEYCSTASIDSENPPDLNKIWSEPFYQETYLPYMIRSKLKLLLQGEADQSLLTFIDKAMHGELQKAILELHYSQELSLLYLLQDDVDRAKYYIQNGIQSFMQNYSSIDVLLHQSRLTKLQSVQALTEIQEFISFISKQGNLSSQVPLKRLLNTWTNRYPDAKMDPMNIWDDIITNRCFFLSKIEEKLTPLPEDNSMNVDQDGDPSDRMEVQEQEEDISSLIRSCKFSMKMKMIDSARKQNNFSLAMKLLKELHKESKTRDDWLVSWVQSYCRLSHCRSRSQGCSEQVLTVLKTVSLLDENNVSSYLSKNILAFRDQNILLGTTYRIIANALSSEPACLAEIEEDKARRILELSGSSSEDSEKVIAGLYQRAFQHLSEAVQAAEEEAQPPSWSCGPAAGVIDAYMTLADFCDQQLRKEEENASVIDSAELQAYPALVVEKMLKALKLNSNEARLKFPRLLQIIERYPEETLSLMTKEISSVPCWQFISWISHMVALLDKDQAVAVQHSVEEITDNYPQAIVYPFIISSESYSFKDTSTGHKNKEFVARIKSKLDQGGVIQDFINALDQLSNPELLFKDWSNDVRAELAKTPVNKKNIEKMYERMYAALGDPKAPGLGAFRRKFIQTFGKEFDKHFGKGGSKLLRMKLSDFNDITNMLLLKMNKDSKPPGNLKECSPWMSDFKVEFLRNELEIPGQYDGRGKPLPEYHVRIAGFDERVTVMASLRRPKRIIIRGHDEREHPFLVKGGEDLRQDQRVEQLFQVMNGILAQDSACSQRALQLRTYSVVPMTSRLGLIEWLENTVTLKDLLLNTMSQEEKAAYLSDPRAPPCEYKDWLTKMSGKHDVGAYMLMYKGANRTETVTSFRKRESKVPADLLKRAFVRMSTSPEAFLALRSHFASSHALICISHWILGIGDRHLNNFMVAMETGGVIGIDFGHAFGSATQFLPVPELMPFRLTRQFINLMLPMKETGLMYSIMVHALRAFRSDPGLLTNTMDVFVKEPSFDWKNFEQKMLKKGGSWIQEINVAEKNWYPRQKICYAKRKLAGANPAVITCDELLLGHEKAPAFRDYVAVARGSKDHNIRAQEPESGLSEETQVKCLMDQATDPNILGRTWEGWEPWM
Description: Inhibition of human DNA-PK incubated for 30 mins in presence of Mg/ATP by HTRF method

[8] = in vivo; details: Sprague-Dawley, rat, iv, 5 mg/kg; remark: listed apart in the source
[9] = in vitro; details: human, liver microsomes
[10] = target: hERG (KCNH2) (Homo sapiens, UniProt Q12809); experiment: in vitro
Description: Inhibition of human ERG at 20 uM relative to control

[11] = in vivo; details: Sprague-Dawley, rat, plasma, iv, 5 mg/kg
Description: (§1) Clearance in Sprague-Dawley rat plasma at 5 mg/kg, iv measured upto 24 hrs by LC-MS/MS analysis

[12] = in vivo; details: Sprague-Dawley, rat, iv, 5 mg/kg; remark: listed apart in the source
[13] = tested on: HCT-116; experiment: Inhibition of colony formation in human HCT-116 cells preincubated with compound for 1 hr followed by exposure to 2 Gy gamma irradiation and measured after 7 days by crystal violet staining based chemiluminescence assay; format: functional, cell-based; details: HCT-116, light or radiation study
[14] = tested on: NCI-H460; experiment: Antitumor activity against human NCI-H460 cells xenografted in BALB/ c nude mouse assessed as inhibition of tumor growth at 100 mg/kg, po administered once daily with 2 Gy irradiation and measured upto 7 days by vernier caliper analysis; format: functional, organism-based; details: time <= 7.0 day
[15] = in vivo; details: Sprague-Dawley, rat, plasma, po, 5 mg/kg
Description: Clearance in Sprague-Dawley rat plasma at 5 mg/kg, po measured upto 24 hrs by LC-MS/MS analysis

[16] = tested on: A549; experiment: Antitumor activity against human A549 cells xenografted in BALB/c nude mouse assessed as inhibition of tumor growth at 10 mg/kg, iv administered thrice measured upto 26 days by vernier caliper analysis; format: functional, organism-based; details: time <= 26.0 day
[17] = rat, in vivo, iv, 5 mg/kg, 24 h
Description: as §1

Cc1cc(-c2cnn(C(F)F)c2)ncc1Nc1ncc2c(n1)n(C1CCOCC1)c(=O)n2C
inhibition at […] [1]: 96.9%
Cmax at 24 h [2]: 1890 ng/mL
AUC(0-t) at 24 h [3]: 4440 ng·h/mL
bioavailability at 24 h [4]: 84%
Cmax at 24 h [5]: 760 ng/mL
half-life at 24 h [6]: 5.82 h
IC50 [7]: 0.4 nM
AUC(0-t) at 24 h [8]: 5290 ng·h/mL
half-life at 5 min, 1 µM [9]: 2.78 h
inhibition at 20 µM [10]: 22.7%
clearance at 24 h [11]: 16.3 mL/min/kg
half-life at 24 h [12]: 1.76 h
IC50 [13]: 68 nM
Activity [14]: Active
CL/F at 24 h [15]: 17.7 mL/min/kg

CC(=O)O[C@H]1C(=O)[C@@]2(C)[C@H]([C@H](OC(=O)c3ccccc3)[C@]3(O)C[C@H](OC(=O)[C@H](O)[C@@H](NC(=O)c4ccccc4)c4ccccc4)C(C)=C1C3(C)C)[C@]1(OC(C)=O)CO[C@@H]1C[C@@H]2O
Activity [16]: inactive

COc1ccc(-c2cc(C)c(Nc3ncc4c(n3)n(C3CCOCC3)c(=O)n4C)cn2)cn1
inhibition at […] [1]: 96.7%
Cmax at 24 h [2]: 1960 ng/mL
AUC(0-t) at 24 h [3]: 7860 ng·h/mL
bioavailability at 24 h [4]: 59.6%
Cmax at 24 h [5]: 1960 ng/mL
half-life at 24 h [6]: 4.37 h
IC50 [7]: 3 nM
AUC(0-t) at 24 h [8]: 13200 ng·h/mL
half-life at 5 min, 1 µM [9]: 19.2 h
inhibition at 20 µM [10]: 16.8%
clearance at 24 h [11]: 6.33 mL/min/kg
half-life at 24 h [12]: 3.34 h
IC50 [13]: 79.3 nM
CL/F at 24 h [15]: 10.7 mL/min/kg

COc1ccc(-c2cc(C)c(Nc3ncc4c(n3)n(C3CCOCC3)c(=O)n4C)cn2)cc1OC
inhibition at […] [1]: 99.9%
Cmax at 24 h [2]: 869 ng/mL
AUC(0-t) at 24 h [3]: 3450 ng·h/mL
bioavailability at 24 h [4]: 46.6%
Cmax at 24 h [5]: 341 ng/mL
half-life at 24 h [6]: 6.73 h
IC50 [7]: 1 nM
AUC(0-t) at 24 h [8]: 7400 ng·h/mL
half-life at 5 min, 1 µM [9]: 2.31 h
inhibition at 20 µM [10]: 8.61%
clearance at 24 h [11]: 11 mL/min/kg
half-life at 24 h [12]: 4.73 h
IC50 [13]: 48 nM
Activity [14]: Active
CL/F at 24 h [15]: 22.3 mL/min/kg

Cc1cc(-c2nc[nH]n2)ccc1Nc1ncc2c(n1)n(C1CCOCC1)c(=O)n2C
inhibition at […] [1]: 96.9%
Cmax at 24 h [2]: 4290 ng/mL
AUC(0-t) at 24 h [3]: 1350 ng·h/mL
bioavailability at 24 h [4]: 33.2%
Cmax at 24 h [5]: 733 ng/mL
half-life at 24 h [6]: 3.72 h
IC50 [7]: 0.4 nM
AUC(0-t) at 24 h [8]: 4060 ng·h/mL
half-life at 5 min, 1 µM [9]: 10.5 h
inhibition at 20 µM [10]: -0.02%
clearance at 24 h [11]: 20.2 mL/min/kg
half-life at 24 h [12]: 11.8 h
IC50 [13]: 83.3 nM
CL/F at 24 h [15]: 62 mL/min/kg

Cc1cc(-c2ccc(C=O)o2)ncc1Nc1ncc2c(n1)n(C1CCOCC1)c(=O)n2C
inhibition at […] [1]: 98.5%
Cmax at 24 h [2]: 25.2 ng/mL
AUC(0-t) at 24 h [3]: 7.83 ng·h/mL
bioavailability at 24 h [4]: 36.2%
Cmax at 24 h [5]: 2.24 ng/mL
half-life at 24 h [6]: 34.4 h
IC50 [7]: 0.2 nM
AUC(0-t) at 24 h [8]: 29.9 ng·h/mL
half-life at 5 min, 1 µM [9]: 0.327 h
inhibition at 20 µM [10]: 4.42%
CL [17]: 2420.2 mL/min/kg
half-life at 24 h [12]: 9.79 h
CL/F at 24 h [15]: 6790 mL/min/kg
